According to patent publication US7700657B2, “Vitamin D analogs” (Galderma Research & Development, priority 2001, dated 2010):
pIC50: −log10 of the molar value. Where two headings read alike, the source gives them in different places.

Experiments:
[1] = biological target: T1, human VDR receptor (Homo sapiens, UniProt P11473); assay: Transactivation potential: VDR agonist activity, HeLa cotransfection with p240Hase-CAT reporter; assay type: cell-based; details: dose giving 50% of maximum activity, HeLa cells, 18 hours treatment
T1 construct: expressed in transfected cells; host or cells: HeLa
T1 sequence (P11473 1-427): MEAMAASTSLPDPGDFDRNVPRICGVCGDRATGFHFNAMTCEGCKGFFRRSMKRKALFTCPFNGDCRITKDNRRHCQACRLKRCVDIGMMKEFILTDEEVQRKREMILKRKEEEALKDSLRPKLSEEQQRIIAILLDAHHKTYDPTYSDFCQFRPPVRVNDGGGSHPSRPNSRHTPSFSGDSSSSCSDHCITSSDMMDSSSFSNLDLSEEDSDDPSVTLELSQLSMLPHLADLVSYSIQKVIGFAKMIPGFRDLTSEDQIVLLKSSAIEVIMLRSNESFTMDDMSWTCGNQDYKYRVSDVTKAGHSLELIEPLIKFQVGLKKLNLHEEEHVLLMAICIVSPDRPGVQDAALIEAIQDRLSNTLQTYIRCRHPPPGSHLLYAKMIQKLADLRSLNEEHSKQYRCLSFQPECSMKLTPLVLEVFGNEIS
Text: By way of example, the VDR agonist activity can be tested on the HeLa cell line by cotransfection of an expression vector for the human VDR receptor and of the reporter plasmid p240Hase-CAT. The agonist activity can be characterized in this cotransfection system by the determination of the dose necessary to obtain 50% of the maximum activity of the product (AC50). The detail of the protocol of this test as well as the results obtained with the compounds according to the invention are described in example 7 of the present application.
The VDR agonist activity can be tested on the HeLa cell line, by cotransfection of an expression vector of the human VDR receptor and of the p240Hase-CAT reporter plasmid which contains the region −1399 to +76 of the rat 24-hydroxylase promoter, cloned upstream of the phase coding for the chloramphenicol acetyltransferase (CAT) gene. 18 hours after cotransfection, the test product is added to the medium. After treatment for 18 hours, the measurement of the CAT activity of the cell lysates is carried out by means of an Elisa test (Enzyme Linked Immuno Sorbent Essay, test marketed by Roche Molecular Biochemicals). The agonist activity can be characterized in this cotransfection system by the determination of the dose necessary in order to obtain 50% of the maximum activity of the product (AC50).

[2] = test system: normal human keratinocytes; assay: Inhibition of proliferation of normal human keratinocytes (BrdU incorporation); assay type: cell-based; details: 5 days culture
Procedure: The biological properties analogous to vitamin D can likewise be measured by the capacity of the product to inhibit the proliferation of normal human keratinocytes (NHK in culture). The product is added to NHK cultured under conditions favoring the proliferative state. The product is left in contact with the cells for five days. The number of proliferative cells is measured by incorporation of bromodeoxyuridine (BRdU) into the DNA. The protocol of this test as well as the results obtained with the compounds according to the invention are described in example 8 of the present application.
It is known that 1,25-dihydroxyvitamin D3, called calcitriol and corresponding to natural vitamin D, inhibits the proliferation of human keratinocytes in culture. The method used is the following: the normal human keratinocytes are inoculated at low density into a 24-well plate. After 4 hours, the compounds to be tested are added to the culture medium. After culturing for 5 days, the proliferation of the keratinocytes is determined by incorporation of 5-bromo-2′ deoxyuridine (BrdU) in the DNA. The quantity of BrdU incorporated is then quantified by using the Elisa test (Enzyme Linked Immuno Sorbent Essay, test marketed by Roche Molecular Biochemicals).
The inhibitory effect on the proliferation of the keratinocytes of the compounds according to the invention and of the calcitriol used as a reference compound is summarized in table II which follows.

[3] = test system: HL60 promyelocytic leukemia cells; assay: Induction of differentiation of HL60 cells (NBT reduction); assay type: cell-based; details: 4 days culture, NBT-positive cells, read-out: Activation of Differentiation AC 50
Text: The biological properties analogous to vitamin D can likewise be measured by the capacity of the product to induce the differentiation of HL60 promyelocytic leukemia cells. The protocol of this test as well as the results obtained with the compounds according to the invention are described in example 9 of the present application.
Calcitriol induces the differentiation of promyelocytic leukemia cells (HL60) in monocytes/macrophages. This differentiation inductor effect is a well-characterized marker of cellular vitamin D activity. One of the most important antimicrobial products of macrophages is hydrogen peroxide, which can be analyzed experimentally by the reduction of NBT (Nitroblue Tetrazolium).
The method used is the following: The HL60 cells are inoculated into 6-well plates and then treated immediately with the compounds to be tested. After 4 days in culture, the cells are incubated with phorbol TPA ester and NBT for a short period and the differentiated cells, i.e., positive to NBT, are counted.

[4] = test system: 24-hydroxylase; assay: In vivo induction of 24-hydroxylase mRNA in SKH mice after single topical application; details: for Induction in % vs Induction Calcitriol Tested at 0.01%: topical, 8 hours; for MRNA EXPRESSION OF 24-HYDROXYLASE Induction Factor Versus Ethanol: 50 μl, epidermis 8 hours after application
Text: The agonist activity on vitamin D receptors of the compounds of the invention can be likewise evaluated “in vivo” by induction of 24-hydroxylase in SKH mice. (Kang et. al., Journal of Investigative Dermatology, 1997, 108(4), 513-518). The test protocol used as well as the results obtained with the compounds according to the invention are described in example 10 of the present application. 1]:
Consequently, the agonist activity on receptors of vitamin D of the compounds of the invention can be evaluated “in vivo” by induction of 24-hydroxylase in SKH mice.
The method used is the following: […] mice receive a single topical application of a compound to be tested in solution in ethanol at increasing concentrations. A volume of 50 μl of the product to be tested or of the vehicle alone is applied on the back of the mice with the aid of a pipette.
Other SKH mice receive a single topical application of calcitriol in solution in ethanol at increasing concentrations. A volume of 50 μl of the product to be tested or of the vehicle alone is applied on the back of the mice with the aid of a pipette.
8 hours after topical application, the mice are euthanized, the treated skin is removed and the epidermidis is separated from the dermis. The quantification of the MRNA of the 24-Hydroxylase is carried out by semiquantitative PCR. The results are standardized with respect to the expression of the mRNA of GAPDH and the values for the different concentrations of calcitriol tested and, for the different compounds of the invention tested, are expressed as an induction factor with respect to calcitriol.

[5] = compound tested at 0.01% (weight/volume)

Row | Molecule | AC50 [1] [nM] | pIC50 ([2]; Keratinocyte, 120 h) | AC50 ([3]; Homo sapiens, HL-60, 96 h) [nM] | Induction in % vs Induction Calcitriol Tested at 0.01% [4, 5] [%] | also measured
1 | CC/C(=C\C=C\C(O)(C(F)(F)F)C(F)(F)F)c1cccc(CCc2ccc(CO)c(CO)c2)c1 [Example 5, (3E,5E)-6-{3-[2-(3,4-Bis-hydroxymethylphenyl)ethyl]-phenyl}-1,1,1-trifluoro-2-trifluoromethylocta-3,5-dien-2-ol] | 3 | 8.10 | 5 |  | Induction in % vs Induction Calcitriol Tested at 0.01% ([4]; compound tested at 0.0003% (weight/volume)): 106%
2 | 1,25-dihydroxyvitamin D3 [Calcitriol, reference compound] |  |  |  | 100 | pIC50 [2]: 7.85; AC50 [3]: 7 nM; MRNA EXPRESSION OF 24-HYDROXYLASE Induction Factor Versus Ethanol ([4]; topical 0.0001% (weight/volume) in ethanol): 6.7; MRNA EXPRESSION OF 24-HYDROXYLASE Induction Factor Versus Ethanol ([4]; topical 0.001% (weight/volume) in ethanol): 10.3; MRNA EXPRESSION OF 24-HYDROXYLASE Induction Factor Versus Ethanol ([4]; topical 0.01% (weight/volume) in ethanol): 20.1; MRNA EXPRESSION OF 24-HYDROXYLASE Induction Factor Versus Ethanol ([4]; topical 0.1% (weight/volume) in ethanol): 26
3 | CC/C(=C\C#CC(O)(C(F)(F)F)C(F)(F)F)c1cccc(OCc2ccc(CO)c(CO)c2)c1 [Example 2, (E)-6-[3-{3,4-Bis-hydroxymethylbenzyloxy)phenyl]-1,1,1-trifluoro-2-tifluoromethyloct-5-en-3-yn-2-ol] | 77 | 6.82 |  | 58 | 
4 | CC/C(=C\C=C\C(O)(C(F)(F)F)C(F)(F)F)c1cccc(OCc2ccc(CO)c(CO)c2)c1 [Example 3, (3E,5E)-6-[3-(3,4-Bis-hydroxymethylbenzyloxy)pheny]-1,1,1-trifluoro-2 trifluoromethylocta-3,5-dien-2-ol] | 7 | 7.46 | 7 |  | Induction in % vs Induction Calcitriol Tested at 0.01% ([4]; compound tested at 0.001% (weight/volume)): 59%; activity (24-hydroxylase induction) compared with calcitriol ([4]; in words): very superior
5 | CC/C(=C\C=C\C(O)(CC)CC)c1cccc(CCc2ccc(CO)c(CO)c2)c1 [Example 1, (4E,6E)-7-{3-[2-(3,4-Bis-hydroxymethylphenyl)ethyl]-phenyl}-3-ethylnona-4,6-dien-3-ol] | 39 | 7.35 | 56 |  | Induction in % vs Induction Calcitriol Tested at 0.01% ([4]; compound tested at 0.1% (weight/volume)): 108%
6 | CC/C(=C\C#CC(O)(C(F)(F)F)C(F)(F)F)c1cccc(CCc2ccc(CO)c(CO)c2)c1 [Example 4, (E)-6-{3-[2-(3,4-Bis-hydroxymethylphenyl)ethyl]phenyl}-1,1,1-trifluoro-2-trifluoromethyloct-5-en-3-yn-2-ol] | 16 | 7.54 |  | 89 | 
